The structures appear in SMILES notation.

The first series concerns cotton aphid (Aphis gossypii). Kind of series: Cotton aphid test in the same manner, more definitive percent mortality at selected rates and exposure times (Table 3). Format: in vivo. The conditions noted are these: 100 ppm; 72 hours exposure. How it is done:
The compounds of formula I useful in the present invention were tested for insecticidal activity by observing mortality in a population of cotton aphid (Aphis gossypii) on treated cotton plants caused by a test compound, when compared to like populations of cotton aphid on untreated plants. These tests were conducted in the following manner:
For each rate of application of test compound, two seven-to-ten days old cotton seedlings (Gossypium hirsutium) grown in 7.6 cm diameter pots were selected for the test. Each test plant was infested with about 120 adult cotton aphids by placing onto each test plant cuttings of leaves from cotton plants grown in a cotton aphid colony. Once infested, the test plants were maintained for up to about 12 hours to allow complete translocation of the aphids onto the test plant. A solution comprising 1000 part per million (ppm) of each test compound was prepared by dissolving 10 milligrams of the test compound in 1 mL of acetone. Each solution was then diluted with 9 mL of a solution of 0.03 mL of polyoxyethylene(10) isooctylphenyl ether in 100 mL of water. About 2.5 mL of solution of each test compound was needed to spray each replicate of test plant (5 mL total for each test compound). If needed, the solution of 1000 ppm of test compound was serially diluted with a solution of 10% acetone and 300 ppm of polyoxyethylene(10) isooctylphenyl ether in water to provide solutions of each test compound for lower rates of application, for example, 300 ppm, 100 ppm, 30 ppm, or 10 ppm. Each replicate of test plant was sprayed with the solutions of test compound until run-off on both the upper and lower surfaces of the leaves. All the test plants were sprayed using a DeVilbus Atomizer Model 152 (Sunrise Medical, Carlsbad, Calif.) at a pressure of about 0.63-0.74 kilogram per square centimeter from a distance of about 30.5 centimeters from the test plants. For comparison purposes, a solution of a standard, such as amitraz or demethylchlordimeform (DCDM), prepared in a manner analogous to that set forth above, as well as a solution of 10% acetone and 300 ppm of polyoxyethylene(10) isooctylphenyl ether in water containing no test compound were also sprayed onto test plants. Upon completion of spraying the solutions of test compound, the solution of standard, and the solution containing no test compound, the plants were allowed to dry. […] After this time, each plant was assessed for percent mortality caused by the test compound when compared to the population of aphids that was infested onto the test plants prior to treatment with test compound. […] If there was 75% mortality or greater of the cotton aphid, a test compound was designated as being more insecticidally active (A).
In a test conducted in the same manner as set forth above, certain compounds of formula I were tested to determine a more definitive percent mortality of cotton aphid.
Take `CN1CCC(=C2c3ccccc3Oc3ccc(F)cc32)CC1` [Compound 9]: the “Percent Mortality of Cotton Aphid on Cotton Plants” value (from here on “Percent Mortality of Cotton Aphid”) was 26%.
Regarding `CCc1ccc2c(c1)C(=C1CCN(C)CC1)c1ccccc1O2` [Compound 12], the “Percent Mortality of Cotton Aphid” value was determined as 26%.
`CCOC(=O)CCN1CCC(=C2c3ccccc3Oc3ccccc32)CC1` [Compound 20]: the “Percent Mortality of Cotton Aphid” value stood at 37%.
Take `CN1CCC(=C2c3ccccc3COc3ccccc32)CC1.Cl` [Compound 26]: the “Percent Mortality of Cotton Aphid” value worked out at 84%.
For `CN1CCN(C2Cc3cc(Cl)ccc3Sc3cc(Cl)ccc32)CC1` (stereo not shown) [Compound 92], the “Percent Mortality of Cotton Aphid” value turned out to be 48%.
`CN1CCN(C2Cc3ccccc3Sc3c(F)ccc(F)c32)CC1` (stereo not shown) [Compound 97]: the “Percent Mortality of Cotton Aphid” value worked out at 65%.
The same measure, in the same setting: for `COc1ccc2c(c1)Sc1ccccc1CC2N1CCN(C)CC1` (stereo not shown) [Compound 101] the value was 60%.
`COc1cccc2c1Sc1ccccc1CC2N1CCN(C)CC1` (stereo not shown) [Compound 102]: the “Percent Mortality of Cotton Aphid” value came out at 33%.
In the case of `Cc1cc2c(cc1F)Sc1ccccc1CC2N1CCN(C)CC1` (stereo not shown) [Compound 111], the “Percent Mortality of Cotton Aphid” value is reported as 94%.
Take `CN1CCN(C2Cc3ccccc3Sc3cccc(C4CC4)c32)CC1` (stereo not shown) [Compound 112]: the “Percent Mortality of Cotton Aphid” value was 92%.
The same measure, in the same setting: for `CN1CCN(C2Cc3ccccc3Sc3ccc(C4CCCC4)cc32)CC1` (stereo not shown) [Compound 113] the value was 78%; for `CC(=O)c1ccc2c(c1)C(N1CCN(C)CC1)Cc1ccccc1S2` (stereo not shown) [Compound 115], 93%.
Turning to `CN1CCN(C2Cc3cc(F)ccc3Sc3ccccc32)CC1` (stereo not shown) [Compound 118], the “Percent Mortality of Cotton Aphid” value stood at 85%.
The same measure, in the same setting: for `CN1CCN(C2Cc3ccc(F)cc3Sc3ccccc32)CC1` (stereo not shown) [Compound 119] the value was 85%.
With `CSc1ccc2c(c1)C(N1CCN(C)CC1)Cc1cc(F)ccc1S2` (stereo not shown) [Compound 122], the “Percent Mortality of Cotton Aphid” value is 88%.
Take `CSc1ccc2c(c1)C(N1CCN(C)CC1)Cc1ccc(F)cc1S2` (stereo not shown) [Compound 123]: the “Percent Mortality of Cotton Aphid” value turned out to be 96%.
With `CCSc1ccc2c(c1)C(N1CCN(C)CC1)Cc1ccc(F)cc1S2` (stereo not shown) [Compound 124], the “Percent Mortality of Cotton Aphid” value was 95%.
In the case of `CN1CCN(C2Cc3ccc(F)cc3Sc3ccc(C(F)(F)F)cc32)CC1.O=C(O)/C=C\C(=O)O.O=C(O)/C=C\C(=O)O` (stereo not shown) [Compound 125], the “Percent Mortality of Cotton Aphid” value amounted to 90%.
In the case of `CC(C)c1ccc2c(c1)C(N1CCN(C)CC1)Cc1ccc(F)cc1S2.O=C(O)/C=C\C(=O)O` (stereo not shown) [Compound 128], the “Percent Mortality of Cotton Aphid” value amounted to 95%.

Still in this series, the particulars now being: 100 ppm; 96 hours exposure.
With `CC(C)N1CCC(=C2c3ccccc3Sc3ccccc32)CC1` [Compound 3], the “Percent Mortality of Cotton Aphid” value was 80%.
The same measure, in the same setting: the result for `CN1CCC(=C2c3ccccc3Oc3c(F)cccc32)CC1` [Compound 11] reads 42%; that for `CN1CCC(=C2c3ccccc3Oc3ccc(C(F)(F)F)cc32)CC1` [Compound 15], 28%.

The same series, now with this note: 100 ppm; 168 hours exposure.
Turning to `CN1CCN(C2Cc3ccccc3Oc3ccc(Cl)cc32)CC1` (stereo not shown) [Compound 64], the “Percent Mortality of Cotton Aphid” value is recorded as 74%.
As for `CN1CCN(C2Cc3ccccc3Oc3ccc(Br)cc32)CC1` (stereo not shown) [Compound 65], the “Percent Mortality of Cotton Aphid” value was 100%.
On the same count and under the same terms, for `CN1CCN(C2Cc3ccccc3Oc3ccc(F)cc32)CC1` (stereo not shown) [Compound 66] the value was 61%; for `CN1CCN(C2Cc3ccccc3Oc3ccc(I)cc32)CC1` (stereo not shown) [Compound 67], 75%; for `CN1CCN(C2Cc3ccccc3Oc3ccc(C(F)(F)F)cc32)CC1` (stereo not shown) [Compound 69], 69%.
`CSc1ccc2c(c1)C(N1CCN(C)CC1)Cc1ccccc1O2` (stereo not shown) [Compound 70]: the “Percent Mortality of Cotton Aphid” value is given as 57%.
Still for that read-out and setting: for `CN1CCN(C2Cc3ccccc3Oc3ccc(OC(F)(F)F)cc32)CC1` (stereo not shown) [Compound 71] the value was 100%.
The same measure, in the same setting: for `C[N+]1([O-])CCN(C2Cc3ccccc3Oc3ccc(OC(F)(F)F)cc32)CC1` (stereo not shown) [Compound 72] the value was 100%; for `CN1CCN(C2Cc3ccccc3Oc3cc(OC(F)(F)F)ccc32)CC1` (stereo not shown) [Compound 73], 35%; for `CN1CCN(C2Cc3ccccc3Oc3ccc(SC(F)(F)F)cc32)CC1` (stereo not shown) [Compound 75], 86%.
Regarding `CN1CCN(C2Cc3ccccc3Oc3ccc([S+]([O-])C(F)(F)F)cc32)CC1` (stereo not shown) [Compound 76], the “Percent Mortality of Cotton Aphid” value stood at 32%.
On the same count and under the same terms, the result for `CN1CCN(C2Cc3ccccc3Oc3ccc(S(=O)(=O)C(F)(F)F)cc32)CC1` (stereo not shown) [Compound 77] reads 37%; that for `C=Cc1ccc2c(c1)C(N1CCN(C)CC1)Cc1ccccc1O2` (stereo not shown) [Compound 78], 53%.
As to `C#Cc1ccc2c(c1)C(N1CCN(C)CC1)Cc1ccccc1O2` (stereo not shown) [Compound 79], the “Percent Mortality of Cotton Aphid” value came to 35%.
On the same count and under the same terms, the result for `CN1CCN(C2Cc3ccccc3Oc3cc(Cl)c(Cl)cc32)CC1` (stereo not shown) [Compound 82] reads 98%; that for `CN1CCN(C2Cc3ccccc3Oc3c(Cl)cc(Cl)cc32)CC1` (stereo not shown) [Compound 83], 41%.
`CN1CCN(C2Cc3ccccc3Oc3c(F)cc(Br)cc32)CC1` (stereo not shown) [Compound 88]: the “Percent Mortality of Cotton Aphid” value turned out to be 35%.
As to `Cc1cc(Br)cc2c1Oc1ccccc1CC2N1CCN(C)CC1` (stereo not shown) [Compound 89], the “Percent Mortality of Cotton Aphid” value was 55%.
Turning to `CCc1ccc2c(c1)C(N1CCN(C)CC1)Cc1ccccc1S2.O=S(=O)(O)O` (stereo not shown) [Compound 98], the “Percent Mortality of Cotton Aphid” value was 90%.
Take `C[N+]1([O-])CCN(C2Cc3ccccc3Sc3ccc(OC(F)(F)F)cc32)CC1` (stereo not shown) [Compound 107]: the “Percent Mortality of Cotton Aphid” value was 82%.
Regarding `CN1CCN(C2Cc3ccc(F)cc3Sc3ccc(OC(F)(F)F)cc32)CC1` (stereo not shown) [Compound 126], the “Percent Mortality of Cotton Aphid” value amounted to 100%.

The series is the same for the next values; noted with them: 300 ppm; 72 hours exposure.
`CCN(CC)CCOC1Cc2ccccc2Sc2ccc(OC(F)(F)F)cc21` (stereo not shown) [Compound 52]: the “Percent Mortality of Cotton Aphid” value was determined as 100%.

Staying with this series, now noted: 300 ppm; 168 hours exposure.
On to `CN1CCN(C2Cc3ccccc3Sc3c(F)cc(Cl)cc32)CC1.O=S(O)S(=O)(=O)O` (stereo not shown) [Compound 96], for which the “Percent Mortality of Cotton Aphid” value turned out to be 100%.
The same measure, in the same setting: for `CN1CCN(C2Cc3ccccc3Sc3c2ccc(Cl)c3Cl)CC1.O=C(O)/C=C\C(=O)O` (stereo not shown) [Compound 110] the value was 65%.

Staying with this series, now noted: 1000 ppm; 72 hours exposure.
Turning to `CN1CCN(C2Cc3ccccc3Sc3c(F)cccc32)CC1` (stereo not shown) [Compound 94], the “Percent Mortality of Cotton Aphid” value is recorded as 100%.
As to `CN1CCN(C2Cc3ccccc3Sc3cc(F)c(Cl)cc32)CC1` (stereo not shown) [Compound 95], the “Percent Mortality of Cotton Aphid” value is 82%.
The same measure, in the same setting: the result for `CSc1ccc2c(c1)C(N1CCN(C)CC1)Cc1ccccc1S2.O=C(O)/C=C\C(=O)O` (stereo not shown) [Compound 103] reads 90%.
Same read-out and setting: the result for `CN1CCN(C2Cc3cc(F)ccc3Sc3ccc(Cl)cc32)CC1` (stereo not shown) [Compound 121] reads 65%.

Still in this series, the particulars now being: 1000 ppm; 96 hours exposure.
Take `CN1CCN(C2Cc3ccccc3Sc3ccc(C(F)(F)F)cc32)CC1` (stereo not shown) [Compound 105]: the “Percent Mortality of Cotton Aphid” value is 85%.

The series is the same for the next values; noted with them: 1000 ppm; 168 hours exposure.
Regarding `CN1CCN(C2Cc3ccccc3Oc3ccc(C#C[Si](C)(C)C)cc32)CC1` (stereo not shown) [Compound 80], the “Percent Mortality of Cotton Aphid” value was found to be 83%.
`CN1CCN(C2Cc3ccccc3Oc3c(F)cc(Cl)cc32)CC1` (stereo not shown) [Compound 85]: the “Percent Mortality of Cotton Aphid” value stood at 92%.
Take `CN1CCN(C2Cc3ccccc3Oc3c(Cl)cc(F)cc32)CC1` (stereo not shown) [Compound 87]: the “Percent Mortality of Cotton Aphid” value stood at 97%.
For the compound `CN1CCN(C2Cc3ccccc3Sc3ccccc32)CC1.O=C(O)/C=C\C(=O)O` (stereo not shown) [Compound 90], the “Percent Mortality of Cotton Aphid” value is 74%.
Consider `CN1CCN(C2Cc3ccc(F)cc3Sc3ccc(OC(F)(F)F)cc32)CC1` (stereo not shown) [Compound 108], for which the “Percent Mortality of Cotton Aphid” value is listed as 100%.
As for `CN1CCN(C2Cc3ccccc3Sc3ccc(OC(F)(F)C(F)F)cc32)CC1` (stereo not shown) [Compound 109], the “Percent Mortality of Cotton Aphid” value was 100%.
As to `CC(C)c1ccc2c(c1)C(N1CCN(C)CC1)Cc1ccc(F)cc1S2` (stereo not shown) [Compound 127], the “Percent Mortality of Cotton Aphid” value is reported as 100%.

These data come from patent publication US20060111342A1, “Insecticidal tricyclic derivatives” (priority 2002, published 2006).
